Assay [1] in a line: Inhibition of Fusobacterium nucleatum recombinant N-terminal hexahistidine-tagged glutamate racemase expressed in Escherichia coli BL21 (DE3) using L-glutamate as substrate by circular dichroism based assay. (CD spectra are sensitive to the conformation of chiral molecules.)
A short description of assay [2]: Partial noncompetitive inhibition of Fusobacterium nucleatum recombinant N-terminal hexahistidine-tagged glutamate racemase expressed in Escherichia coli BL21 (DE3) using L-glutamate as substrate by Michaelis-Menten plot analysis.
Assay [3] concerns Fusobacterium nucleatum. As to the kind of experiment: Inhibition of Fusobacterium nucleatum recombinant N-terminal hexahistidine-tagged glutamate racemase expressed in Escherichia coli BL21 (DE3) using L-glutamate as substrate at 64 mM by circular dichroism based assay.
The test system of assay [4] is Fusobacterium nucleatum. As to the kind of experiment: (§1) Mixed-type inhibition of Fusobacterium nucleatum recombinant N-terminal hexahistidine-tagged glutamate racemase expressed in Escherichia coli BL21 (DE3) using L-glutamate as substrate by Michaelis-Menten plot analysis.
A short description of assay [5]: as §1.
For assay [6], the system named is Fusobacterium nucleatum. Kind of assay: Inhibition of Fusobacterium nucleatum recombinant N-terminal hexahistidine-tagged glutamate racemase expressed in Escherichia coli BL21 (DE3) using L-glutamate as substrate at 50 mM by circular dichroism based assay.
Assay [7] is described as follows: Noncompetitive inhibition of Bacillus subtilis glutamate racemase.
The nature of assay [8]: Inhibition of Bacillus subtilis glutamate racemase.
The subject of assay [9] is Fusobacterium nucleatum. As to the kind of experiment: Inhibition of Fusobacterium nucleatum recombinant N-terminal hexahistidine-tagged glutamate racemase expressed in Escherichia coli BL21 (DE3) using L-glutamate as substrate at 40 mM by circular dichroism based assay.

As usually defined, the IC50 is the concentration that inhibits the measured activity by half. What is called Ki is a dissociation constant, usually derived from enzyme kinetics or from competition with a known ligand. `NC1(C(=O)O)CCP(=O)(O)CC1` (stereo not drawn): the IC50 in assay [1] worked out at 24.1 mM. In addition, in assay [2], the Ki is 3.1 mM.

What is called inhibition is how much of the control response was suppressed. Consider `NC(CCP(=O)(O)O)C(=O)O` (racemic), for which the inhibition in assay [3] turned out to be 15%.

Regarding `O=C1CCS(=O)(=O)CC1`, the alphaKi in [4] came out at 28 mM. Also, in assay [5], the Ki came to 18.4 mM. Also, the IC50 in [1] was 21.2 mM.

As for `O=C1CCP(=O)(O)CC1`, in assay [1], the IC50 amounted to 47.7 mM.

As to `O=C(O)CCP(=O)(O)CCC(=O)O`, the inhibition in assay [6] stood at 40%. Besides, in [1], the IC50 is 60.4 mM.

As for `O=C(O)c1cccc(C(=O)O)n1` [DIPICOLINIC ACID], the Ki in assay [7] came out at 0.092 mM; in assay [8], 2.7 mM.

Take `NC1(C(=O)O)CCS(=O)(=O)CC1`: in assay [9], the inhibition came out at 30%. Besides, the IC50 in assay [1] is 215 mM.

Values taken from ChEMBL document CHEMBL3120135, “Inhibition of glutamate racemase by substrate-product analogues” (Bioorg Med Chem Lett, 2014).
